“Also recorded” adds a separate entry of the source. Where two headings read alike, the source gives them in different places.
Columns and labels:
[1] = test system: tactile allodynia (paw withdrawal thresholds); experiment: Tactile allodynia (50% paw withdrawal threshold, von Frey) after intrathecal drug, L5/L6 spinal nerve ligated rats; type: in vivo, Male Harlan Sprague-Dawley rats
Description: Male Harlan Sprague-Dawley rats were used (100-200 g). Rats were housed 2-3 to a cage with corn cob bedding and Purina rat chow and water ad libitum, in a standard facility with a 12 h/ 12 h day/night cycle. After surgical procedures involving chronic indwelling catheter insertion, animals were housed singly to prevent catheter damage.
Rats were allowed to recover 5-7 days before further testing or surgeries.
The catheters were 9 cm in intrathecal length and terminated near the lumbar enlargement. The rostral 3 cm of catheter was tunneled under the skin to externalize between the ears. Rats with neurologic deficits were discarded.
Monoethylglycinexylidide (MEGX) was dissolved in physiologic saline; 3-hydroxylidocaine (3-OH L) was dissolved in DMSO for intravenous administration.
Intravenous drugs were delivered to awake, unrestrained rats by slow infusion using a syringe pump (Harvard apparatus 22). Intrathecal drugs were delivered to awake, briefly restrained rats in a volume of 10 μl, followed by 10 μl of vehicle flush, using a calibrated tubing extension with a 30-gauge adapter fitting the implanted intrathecal catheter, attached to a geared Hamilton 100 μl glass syringe. IT drug delivery was monitored by observing the advancement of a small air bubble down the tubing.
Rats were placed in a plastic cage with an open wire mesh bottom and allowed to accommodate for approximately fifteen minutes. […] In brief, von Frey hairs were sequentially applied using an up-and-down paradigm to the left mid-plantar hindpaw with sufficient force to cause slight filament buckling. Positive responses were noted if the paw was sharply withdrawn. […] Otherwise, PWT were calculated by noting the stimulus level at which the first change in behavior occurred, collecting four additional responses to the continued up-and-down oscillation of stimulus presentation around the response threshold, and interpolating the 50% response threshold. […] The following equation was used to compute %MPE: [formula]
Plasma drug levels and PWT were correlated using linear regression. Serially measured PWT and %MPE were compared using repeated measures ANOVA.

[2] = cited from earlier work
[3] = Solubility; type: physicochemical; conditions: IT vehicle 10% DMSO, 25% propylene glycol, 25% ethanol, 40% saline; injected volume 10 μl
From the text: The free base forms of the compounds of general formula I are not water-soluble; for example, it was necessary to dissolve the free base of 3-hydroxylidocaine in a vehicle containing an empirically determined mixture of ethanol, dimethyl sulfoxide, propylene glycol and saline for application to the rat spinal cord. The physiologically-acceptable salt forms of the compounds of general formula I employed in accordance with the present invention, in contrast, are generally water-soluble to at least some degree, and the solubility properties thereof can be in many cases improved by conjugation. Unlike the free base forms of the compounds of general formula I, the salt forms may be administered by a variety of known routes [e.g., oral intravenous, intrathecal, local (e.g., intraneuromal), epidural, transdermal, etc.] as would be readily appreciated by those skilled in the art. As is conventional practice in the art, the active agent of general formula I is typically administered in a pharmaceutically acceptable carrier or excipient (e.g., saline).

[4] = test system: tactile allodynia (paw withdrawal thresholds); experiment: Tactile allodynia (50% paw withdrawal threshold, von Frey) after intravenous drug, L5/L6 spinal nerve ligated rats; type: in vivo, Male Harlan Sprague-Dawley rats
From the text: For intravascular access, external jugular catheters were fashioned from PE-50 tubing and inserted into an external jugular vein under halothane/oxygen anesthesia. Arterial catheters were also fashioned from PE-50 with a small bouton 1 cm from the intravascular end for suture securing; they were inserted into a carotid artery, taking care to spare the surrounding nerves. All catheters were flushed with heparinized saline (10 U/ml) and tunneled subcutaneously to emerge at the posterior base of the neck, and capped when not in use. […] Rats were placed in a plastic cage with an open wire mesh bottom and allowed to accommodate for approximately fifteen minutes. A series of 8 von Frey filaments with logarithmically incremental stiffness (0.41, 0.70, 1.20, 2.00, 3.63, 5.50, 8.50, and 15.10 g) (Stoelting, Wood Dale, Ill.) was used to determine the 50% threshold for paw withdrawal to light mechanical stimuli (PWT). In brief, von Frey hairs were sequentially applied using an up-and-down paradigm to the left mid-plantar hindpaw with sufficient force to cause slight filament buckling. Positive responses were noted if the paw was sharply withdrawn. […] Otherwise, PWT were calculated by noting the stimulus level at which the first change in behavior occurred, collecting four additional responses to the continued up-and-down oscillation of stimulus presentation around the response threshold, and interpolating the 50% response threshold. […] The following equation was used to compute %MPE: [formula] Plasma drug levels and PWT were correlated using linear regression. Serially measured PWT and %MPE were compared using repeated measures ANOVA.

[5] = test system: tactile allodynia (paw withdrawal thresholds); experiment: Mechanical allodynia after single i.p. dose in SD rats (left L5/L6 spinal nerve ligation); type: in vivo
[6] = test system: tactile allodynia (paw withdrawal thresholds); experiment: Mechanical allodynia after single i.p. dose in DA rats (left L5/L6 spinal nerve ligation); type: in vivo
[7] = DA rats; some species of rats; cited from earlier work
[8] = test system: P450 PA(P45OIA2) enzyme; conditions: lidocaine metabolite formation; cited from earlier work

CCN(CC)CC(=O)Nc1c(C)ccc(O)c1C [3-OH L, 3-hydroxylidocaine]
persistence of allodynia suppression after single IT dose ([1]; 3-OH L 58 μg IT single dose, follow-up period): 5 days | thresholds at 5 days post treatment ([1]; 3-OH L 58 μg IT, N=6, baseline 2.7±0.2, vehicle 2.2±0.5, P=0.0008, unit not given): 9.3±2.5 | PWT at 60 minutes after IT treatment ([1]; 3-OH L 58 μg IT, baseline 2.3±0.39 g, P<0.0001): 10.66 ± 2.3 g | duration of effect on allodynia, IT route ([1]; IT): long lasting effect by the IT route | effect on allodynia thresholds after IT delivery ([1]; IT, lidocaine 500 μg, MEGX 500 μg, 3-OH L 58 μg): suppressed allodynia after IT administration; also recorded: significantly effective at suppressing allodynia | production of 3-OH L in humans [2]: humans do produce some 3-OH L | production of 3-OH L in humans ([2]; listed as 3-OHL): very small quantities | highest dose soluble in the vehicle [3]: 58 µg | PWT after infusion ([4]; 3-OH L IV in DMSO, 20 mg/kg total (FIG. 2), N=4, baseline 1.57±0.5 g, P=<0.0001): 15 ± 0 g | duration of effect on allodynia, IV route ([4]; IV): not by the IV route | potency and onset of allodynia suppression relative to lidocaine ([4]; IV 3-OH L compared with parent compound): more potent with regard to this effect; also recorded: far more rapid onset | allodynia suppression by IV delivery ([4]; IV, N=4): highly active when administered intravenously; also recorded: both potent and effective at suppressing allodynia; also recorded: complete normalization | duration of significant effect on allodynia, SD rats ([5]; 3-OHL 15 mg/kg i.p., N=6, P<0.05, followed for 7 days): up to 7 days | magnitude and duration of effect of 15 mg/kg 3-OHL relative to 60 mg/kg lidocaine in SD rats ([5]; i.p. (FIG. 7)): apparently shorter duration | effect on tactile allodynia, SD rats ([5]; single i.p. dose, lidocaine 60 mg/kg, 3-OHL 15 mg/kg (P<0.05)): persistently reduced allodynia in both strains; also recorded: persistent suppression of allodynia | duration of significant effect on allodynia, DA rats ([6]; 3-OHL 15 mg/kg i.p., N=5, P<0.002, followed for 7 days): up to 7 days | effect on tactile allodynia, DA rats ([6]; single i.p. dose, lidocaine 60 mg/kg, 3-OHL 15 mg/kg (P<0.002)): persistently reduced allodynia in both strains; also recorded: persistent suppression of allodynia | 3-hydroxylation / production of 3-OH L in rats [7]: Some species of rats predominantly produce 3-OH L | enzyme producing the metabolite 3-OH L [8]: produced by the P450 PA(P45OIA2) enzyme
